Results: US6489364B2, “Antiviral protease inhibitors” (priority 1997, dated 2002)
Values after ≈ are worked out from the molar mass of the structure shown. Read-outs that look alike come from different tables or passages of the source.

Tests used:
HIV-1 = HIV-1 infected MT4 cell culture, XTT assay; assay type: cell-based
Method: Compounds are also tested for HIV protease activity in cell culture. MT4 cells grown in RPMI 1640 cell culture medium including 10% fetal calf serum are infected with 10 TCID HIV-1 per 2×10^5 cells and cultured for 6 days. XTT is added and the amount of XTT formazan produced in the following 6 hours represents the number of surviving cells. Results are expressed as the ED50, that is the concentration in μg/ml of the compound of the invention which suppresses viral replication by 50%.

purified HIV proteinase = biological target: T1, purified HIV proteinase (Human immunodeficiency virus type 1 group M subtype B, UniProt P04585); assay: biochemical
T1 construct: purified HIV proteinase
Method: Representative compounds were tested for HIV protease activity in a spectrophotometric enzyme assay using the chromogenic substrate His-Lys-Ala-Arg-Val-Leu-p-nitro-Phe-Glu-Ala-Nle-Ser-amide and purified HIV proteinase. The rate of cleavage is followed by continuously registering the change in absorbance at 300 nm. […]

[1] = Human immunodeficiency virus 1, MT4, 144 h
[2] = Human immunodeficiency virus 1, 144 h, second part of Table 1, head EC50, MT4 cells, HIV-1, 6 days, XTT, read-out: EC50
[3] = values in parentheses, affinity constant, read-out: (Ki μM)

| SMILES | EC50 (HIV-1; [1]) [µg/mL] | Ki (purified HIV proteinase) [µM] | EC50 (HIV-1; [2]) [µg/mL] | Ki (purified HIV proteinase; [3]) [µM] | Ki (purified HIV proteinase; read-out: (Ki μM)) [µM] |
| --- | --- | --- | --- | --- | --- |
| CNC(=O)[C@@H](NC(=O)[C@H](OCc1ccc(-c2cccs2)cc1)[C@H](O)[C@@H](O)[C@@H](OCc1ccc(-c2cccs2)cc1)C(=O)N[C@H](C(=O)NC)C(C)C)C(C)C [Example 25, N1,N6-di[(1S)-2-methyl-1-(methylcarbamoyl)propyl]-(2R,3R,4R,5R)-2,5-di[4-(2-thienyl)benzyloxy]-3,4-dihydroxyhexanediamide] | 0.02 (≈ 0.0257 µM) | 0.00017 | – | – | – |
| CNC(=O)C(NC(=O)C(OCc1ccccc1F)C(O)C(O)C(OCc1ccccc1F)C(=O)NC(C(=O)NC)C(C)C)C(C)C [Example 19, N1,N6-di[(1S)-2-methyl-1-(methylcarbamoyl)propyl]-(2R,3R,4R,5R)-2,5-di[4-(2-fluorobenzyl)oxy]-3,4-dihydroxyhexanediamide] | – | – | 0.8 (≈ 1.23 µM) | 0.0005 | – |
| CNC(=O)[C@@H](NC(=O)[C@H](OCc1ccccc1)[C@H](O)[C@@H](O)[C@@H](OCc1ccccc1)C(=O)N[C@H](C(=O)NC)c1ccccc1)c1ccccc1 [Example 16, N1,N6-di[(1S)-1-phenyl-1-(methylcarbamoyl)methyl]-(2R,3R,4R,5R)-2,5-di(benzyloxy)-3,4-dihydroxyhexanediamide] | 1 (≈ 1.46 µM) | – | – | – | 0.0023 |
| CNC(=O)C(NC(=O)C(OCc1ccc(F)cc1F)C(O)C(O)C(OCc1ccc(F)cc1F)C(=O)NC(C(=O)NC)C(C)C)C(C)C [Example 20, N1,N6-di[(1S)-2-methyl-1-(methylcarbamoyl)propyl]-(2R,3R,4R,5R)-2,5-di[4-(2,4-difluorobenzyl)oxy]-3,4-dihydroxyhexanediamide] | – | – | 0.9 (≈ 1.31 µM) | 0.0001 | – |
| O=C(N[C@H]1c2ccccc2C[C@H]1O)[C@H](OCc1ccc(F)cc1F)[C@H](O)[C@@H](O)[C@@H](OCc1ccc(F)cc1F)C(=O)N[C@H]1c2ccccc2C[C@H]1O [Example 21, N1,N6-di[(1S,2R)-2-hydroxy-2,3-dihydro-1H-1-indenyl]-(2R,3R,4R,5R)-2,5-di(2,4-difluorobenzyloxy)-3,4-dihydroxyhexanediamide] | – | – | 0.1 (≈ 0.138 µM) | 0.00038 | – |
| O=C(N[C@H]1c2ccccc2C[C@H]1O)[C@H](OCc1cccc(F)c1)[C@H](O)[C@@H](O)[C@@H](OCc1cccc(F)c1)C(=O)N[C@H]1c2ccccc2C[C@H]1O [Example 18, N1,N6-di[(1 S,2R)-2-hydroxy-2,3-dihydro-1H-1-indenyl]-(2R,3R,4R,5R)-2,5-di(3-fluorobenzyloxy)-3,4-dihydroxyhexanediamide] | – | – | 0.5 (≈ 0.726 µM) | 0.05 | – |
| CNC(=O)[C@@H](NC(=O)[C@H](OCc1ccc(-c2cccc([N+](=O)[O-])c2)cc1)[C@H](O)[C@@H](O)[C@@H](OCc1ccc(-c2cccc([N+](=O)[O-])c2)cc1)C(=O)N[C@H](C(=O)NC)C(C)C)C(C)C [Example 24, N1,N6-di[(1S)-2-methyl-1-(methylcarbamoyl)propyl]-(2R,3R,4R,5R)-2,5-di[(4-(3-nitrophenyl)benzyl)oxy]-3,4-dihydroxyhexanediamide] | 0.4 (≈ 0.467 µM) | 0.0014 | – | – | – |
